According to publication PMC3006138, “Fexinidazole – A New Oral Nitroimidazole Drug Candidate Entering Clinical Development for the Treatment of Sleeping Sickness” (PLoS Neglected Tropical Diseases, 2010):
Entries after “also recorded” stand apart in the source; their conditions may differ.

Legend:
Excretion balance = format: in vivo, rat; conditions: for excreted percent of dose, faeces / excreted percent of dose, urine: 800 mg/kg po; for radioactivity eliminated: within 48 h
Experimental: Excretion balance in rats was carried out using a single oral dose of radiolabelled fexinidazole administered at the dose of 800 mg/kg (approximately 3.7 MBq/kg, 100 µCi/kg) by gastric gavage to three male albino Sprague Dawley rats. […]
This study was conducted according to Protocol N° 0162-2008 and to Amendment 1. A copy of the experimental protocol is included in Appendix 1; a copy of the amendment is included […]
FEXINIDAZOLE is a 5-nitroimidazole derivative biologically active against Trypanosoma parasites (T.b. rhodesiense and T.b. brucei) and useful in the treatment of the Human African Trypanosomiasis (HAT), known as sleeping sickness. FEXINIDAZOLE is a compound currently under development by the Sponsor.
The objective of this study was to obtain information on the elimination of radioactive drug-related material in urine and faeces following oral administration of [14C]-FEXINIDAZOLE (800 mg/kg) to male Sprague Dawley rats.
The albino Sprague Dawley rat was chosen as the species for this study since it was one of the species used in the toxicological evaluation of the test compound.
Only male animals were used as no gender differences were expected with respect to the aim of the study. The oral route of administration was chosen as this is the intended therapeutic route. The dose level was selected in agreement with the Study Sponsor and it is within the pharmacological relevant range. No overt toxicity was expected after single dosing at this […]
The study was conducted on 3 male animals after single oral administration of [14C]- FEXINIDAZOLE (800 mg/kg, approximately 3.7 MBq/kg, 100 µCi/kg).
Urine and faeces were collected up to 96 hours after administration. The radioactivity levels of drug-related material were determined in each collected sample by Liquid Scintillation […]
A summary of the experimental design is reported below:
Animal no. Date of Dosing Administered Dose Samples collected and (oral administration) analyzed
100 µCi/kg washes, carcass and skin […]
The test formulations were prepared by suspending unlabelled FEXINIDAZOLE and [14C]- FEXINIDAZOLE (see section 5.1) in 5% Tween 80 and 0.5% Methyl cellulose 400 cP (Methocel) in water, in order to obtain [14C]-FEXINIDAZOLE at the final target concentration of 80 mg/mL corresponding to a radioactivity concentration of about 370 […]
The test formulation was prepared by suspending an appropriate amount of unlabelled FEXINIDAZOLE in the dose vehicle. This formulation was homogenised using a Potter-Elvehjem homogenizer apparatus (teflon pestle of approx. 30 mm x 53 mm and glass tube of 40 mL), in order to obtain a fine suspension by up-and-down strokes, gently made by hand. The formulation was then collected and transferred from the homogeniser glass tube to the glass pot containing the [14C]-FEXINIDAZOLE.
During the preparation the test formulation was protected from light as far as possible.
The radioactivity concentration and homogeneity of the test formulation were determined, before administration, by liquid scintillation counting of triplicate weighed aliquots of test formulation. The radiolabelled test formulation was used immediately after formulation.
6.7.1. Administered Doses
The dose of [14C]-FEXINIDAZOLE was orally administered by gastric gavage at the target dose level of 800 mg/kg (radioactivity dose of about 3.7 MBq/kg, 100 µCi/kg) and at a target dose volume of about 10 mL/kg.
Individual doses were prepared for each animal by weighing the appropriate amount of the test formulation in an appropriate syringe for oral administration. The amount of dose administered to each animal was determined by weighing the filled syringe before the treatment and the empty syringe after dose administration. The actual dose received by each animal was calculated using the weight of the administered formulation, the radioactivity concentration and the final specific activity of the test material.
The actual doses received by each animal are documented in Table 1. […]

[1] = set-up: method as in ref 2 (report no. 0259-2007-R); conditions: oral, normalized to 1 mg/kg, previous rat study, ref 2 (report no. 0259-2007-R); cited from earlier work
[2] = Irwin's test of general behaviour and body temperature; format: in vivo, rat
Experimental: Neurobehavioural safety was carried out using the Irwin's test of general behaviour and body temperature in male rats, [41]. […] General behaviour was assessed before treatment and 2 h and 24 h after vehicle or drug administration. A defined set of behavioural observations using an arbitrary intensity scale of 0 (no behavioural change) to 8 was made before treatment and 2 h and 24 h after treatment. Factors present in normal animals (e.g. alertness, mobility) were scored as 4; potentiation or depression of these factors was indicated as higher or lower integers, respectively. Factors absent in normal animals were scored from 0 (normal) to 8.
Exp. Treatment(a) Dose Number of Session (mg/kg) Animals/Group
(a) Three animals/group were dosed each day of study.
6.3.2. Allocation/Randomization
The animals were selected and distributed into experimental groups using random number tables (Fisher and Yates).
6.3.3. Dose Administration
Route and Method Oral, gastric gavage
Dosage volumes were adjusted to the individual animal body weights recorded on the day of […]
6.3.4. Dose Justification
In this study, the top dose of […]
dose went from 500 to 1000 mg/kg/day.
6.4. Experimental procedure
6.4.1. Behavioral observations
Behavior of the animals was assessed before treatment, 2 hours and 24 hours after treatment.
After treatment, animals were put in their home cages. Observation was performed in 5 steps:
• Home cage observations: piloerection, bizarre behavior, exophthalmus, respiration, tremors, twitches, convulsions
Nerviano Medical Sciences

[3] = 0-96 h, listed as [14C]-FEXINIDAZOLE

With `CSc1ccc(OCc2ncc([N+](=O)[O-])n2C)cc1` [Fexinidazole, 1-methyl-2-((p-(methylthio)phenoxy)methyl)-5-nitroimidazole] the “overall recovery of total radioactivity” value (Excretion balance; 0-96 h) was “approximately 93%”, the “percent of dose, cage washing” value (Excretion balance; 0-96 h) was 2.73% and the “radioactivity recovered in all the excreta (including cage washes)” value (Excretion balance; 0-96 h) was “Approximately 91.4%”. For the same compound, the “overall recovery of total radioactivity” value (Excretion balance; [3]) was 92.87%, the “excreted percent of dose, faeces” value (Excretion balance; 0-96 h) was 59% and the “excreted percent of dose, urine” value (Excretion balance; 0-96 h) was 30%. The “excreted percent of dose, faeces” value (Excretion balance; [3]) was 58.77%, the “excreted percent of dose, urine” value (Excretion balance; [3]) was 29.92% and the “dose recovered from the carcass (and skin)” value (Excretion balance; 96 h) was “About 1.4%”. The “percent of dose, carcass” value (Excretion balance; 96 h) was 1.01%, the “percent of dose, skin” value (Excretion balance; 96 h) was 0.43% and the radioactivity eliminated (Excretion balance) was 84%. The radioactivity eliminated (Excretion balance; listed as [14C]-FEXINIDAZOLE) was “about 84.3%”, the “AUC0-∞, norm” value [1] was 45 ng⋅h/mL and the Body temperature ([2]; 100 mg/kg, 2 hours) was 38.3 ± 0.3 °C. For the same compound, the Body temperature ([2]; 100 mg/kg, 24 hours) was 38.2 ± 0.3 °C, the Body temperature ([2]; 300 mg/kg, 2 hours) was 38.1 ± 0.5 °C and the Body temperature ([2]; 300 mg/kg, 24 hours) was 37.9 ± 0.6 °C. The Body temperature ([2]; 1000 mg/kg, 2 hours) was 38.3 ± 0.3 °C, the Body temperature ([2]; 1000 mg/kg, 24 hours) was 38.1 ± 0.3 °C and the “effects on general behaviour and body temperature” value ([2]; 100, 300 or 1000 mg/kg po) was “no meaningful effects; also recorded: no effects were observed”. The “No-Observed-Effect-Level on general behavior and body temperature” value ([2]; single oral dose) was at least 1000 mg/kg.
